Source: publication PMC8276018, “The Prostacyclin Analogue, Treprostinil, Used in the Treatment of Pulmonary Arterial Hypertension, is a Potent Antagonist of TREK-1 and TREK-2 Potassium Channels” (Frontiers in Pharmacology, 2021)
Substitutions are numbered along the chain they refer to.

Key:
Type in all cases: cell-based
TREK-1 [1] = target: T1, TREK-1 (Homo sapiens, UniProt O95069); assay: whole-cell patch-clamp, current activation at […]; conditions: read-out: % current enhancement at 1 μM
T1 construct: gene KCNK2; NP_055032.1, wild type, expressed in tsA201 cells
T1 sequence (O95069 1-426): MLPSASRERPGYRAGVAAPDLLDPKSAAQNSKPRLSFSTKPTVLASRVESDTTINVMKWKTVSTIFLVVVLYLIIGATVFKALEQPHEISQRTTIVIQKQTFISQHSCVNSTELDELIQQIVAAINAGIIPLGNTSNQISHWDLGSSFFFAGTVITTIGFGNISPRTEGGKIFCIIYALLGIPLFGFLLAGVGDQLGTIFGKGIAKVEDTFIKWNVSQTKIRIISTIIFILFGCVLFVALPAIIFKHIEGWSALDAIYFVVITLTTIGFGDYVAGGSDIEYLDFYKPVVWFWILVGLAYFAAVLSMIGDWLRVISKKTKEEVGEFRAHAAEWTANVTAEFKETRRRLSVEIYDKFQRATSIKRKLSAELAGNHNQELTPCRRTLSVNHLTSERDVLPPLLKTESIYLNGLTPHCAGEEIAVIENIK

TREK-2 [2] = target: T2, TREK-2 (Homo sapiens, UniProt P57789); assay: whole-cell patch-clamp, current activation at […]; conditions: read-out: % current enhancement at 1 μM
T2 construct: gene KCNK10; NP_612190.1, wild type, expressed in tsA201 cells
T2 sequence (P57789 1-538): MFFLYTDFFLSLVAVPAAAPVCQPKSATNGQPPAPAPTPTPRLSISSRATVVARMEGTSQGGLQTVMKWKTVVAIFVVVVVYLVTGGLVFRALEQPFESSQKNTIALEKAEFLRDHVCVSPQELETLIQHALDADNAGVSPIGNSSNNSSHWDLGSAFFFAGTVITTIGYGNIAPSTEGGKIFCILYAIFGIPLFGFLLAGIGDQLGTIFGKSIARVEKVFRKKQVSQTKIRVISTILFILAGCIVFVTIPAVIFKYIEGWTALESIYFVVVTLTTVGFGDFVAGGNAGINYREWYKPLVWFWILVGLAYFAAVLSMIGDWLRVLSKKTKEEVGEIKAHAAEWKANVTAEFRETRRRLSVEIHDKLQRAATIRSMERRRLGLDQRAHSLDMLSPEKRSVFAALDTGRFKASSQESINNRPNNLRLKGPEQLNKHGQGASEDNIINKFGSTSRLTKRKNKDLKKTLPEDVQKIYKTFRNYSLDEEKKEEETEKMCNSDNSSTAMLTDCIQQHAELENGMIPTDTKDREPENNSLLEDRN

TREK-1 [3] = target: T1, TREK-1; assay: whole-cell patch-clamp, concentration-response
TREK-1 [4] = target: T3, TREK-1 (Homo sapiens, UniProt O95069, Y299A); assay: whole-cell patch-clamp, […]
T3 construct: gene KCNK2; homodimeric mutant channel in tsA201 cells
T3 sequence (O95069 1-411 isoform O95069-2 Y284A): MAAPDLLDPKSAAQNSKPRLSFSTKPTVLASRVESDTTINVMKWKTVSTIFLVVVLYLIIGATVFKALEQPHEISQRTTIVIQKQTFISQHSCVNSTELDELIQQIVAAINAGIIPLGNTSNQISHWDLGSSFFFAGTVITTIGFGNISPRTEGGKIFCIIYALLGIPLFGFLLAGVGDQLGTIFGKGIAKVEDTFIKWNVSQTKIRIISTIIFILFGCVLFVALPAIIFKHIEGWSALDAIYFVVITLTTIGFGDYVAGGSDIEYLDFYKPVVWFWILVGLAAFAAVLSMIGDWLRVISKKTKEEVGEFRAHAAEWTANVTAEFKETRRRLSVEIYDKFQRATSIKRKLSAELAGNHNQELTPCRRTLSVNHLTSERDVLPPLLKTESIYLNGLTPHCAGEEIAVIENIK

TREK-1 [5] = target: T4, TREK-1 (Homo sapiens, UniProt O95069, I95A); assay: whole-cell patch-clamp, […]
T4 construct: gene KCNK2; homodimeric mutant channel in tsA201 cells
T4 sequence (O95069 1-411 isoform O95069-2 I80A): T3 sequence (O95069 1-411 isoform O95069-2 Y284A) with I80A, A284Y

TREK-1 [6] = target: T5, TREK-1 (Homo sapiens, UniProt O95069, L304A); assay: whole-cell patch-clamp, […]
T5 construct: gene KCNK2; homodimeric mutant channel in tsA201 cells
T5 sequence (O95069 1-411 isoform O95069-2 L289A): T3 sequence (O95069 1-411 isoform O95069-2 Y284A) with A284Y, L289A

TREK-1 [7] = target: T6, TREK-1 (Homo sapiens, UniProt O95069, L117A); assay: whole-cell patch-clamp, […]
T6 construct: gene KCNK2; homodimeric mutant channel in tsA201 cells
T6 sequence (O95069 16-426 L117A): T3 sequence (O95069 1-411 isoform O95069-2 Y284A) with M1V, L102A, A284Y

TREK-2 [8] = target: T7, TREK-2 (Homo sapiens, UniProt P57789, L315A); assay: whole-cell patch-clamp, […]
T7 construct: gene KCNK10; homodimeric mutant channel in tsA201 cells
T7 sequence (P57789 1-538 L315A): T2 sequence (P57789 1-538) with L315A

TREK-1 [9] = target: T8, TREK-1 (Homo sapiens, UniProt O95069, Q91A); assay: whole-cell patch-clamp, […]
T8 construct: gene KCNK2; homodimeric mutant channel in tsA201 cells
T8 sequence (O95069 1-411 isoform O95069-2 Q76A): T3 sequence (O95069 1-411 isoform O95069-2 Y284A) with Q76A, A284Y

TREK-2 [10] = target: T2, TREK-2; assay: whole-cell patch-clamp, concentration-response

Row | activation at 1 µM (TREK-1 [1]) [%] | activation at 1 µM (TREK-2 [2]) [%] | SMILES | IC50 (TREK-1 [3]) [µM] | inhibition at 1 µM (TREK-1 [4]) [%] | inhibition at 1 µM (TREK-1 [5]) [%] | inhibition at 1 µM (TREK-1 [6]) [%] | inhibition at 1 µM (TREK-1 [7]) [%] | inhibition at 1 µM (TREK-2 [8]) [%] | inhibition at 1 µM (TREK-1 [9]) [%] | IC50 (TREK-2 [10]) [µM]
1 | 144 | 192 | c1ccc(-c2nn[nH]n2)c(Nc2cccc3c2CCCC3)c1 [BL-1249] | – | – | – | – | – | – | – | –
2 | – | – | CCCCC[C@H](O)CC[C@@H]1[C@H]2Cc3cccc(OCC(=O)O)c3C[C@H]2C[C@H]1O [treprostinil] | 0.03 | 58 | 78.2 | 72 | 88 | 74 | 89 | 0.04
